The record followed here is ChEMBL document CHEMBL5104090, “Recent advances in the medicinal chemistry of carbonic anhydrase inhibitors” (Eur J Med Chem, 2021).

What is called Ki is a dissociation constant, usually derived from enzyme kinetics or from competition with a known ligand. A higher Ki goes with weaker binding. What is called inhibition is the drop in the measured response relative to a control, in per cent. A lower inhibition goes with a response near the control. One may read the CC50 as the concentration at which the toxic effect on the cells reaches its halfway point. High values mean better tolerance by the cells, low ones harm at low concentration. The IC50 is the concentration needed to halve the response being measured. Higher therefore signals weaker potency.

Series [1] concerns the target T1, Carbonic anhydrase 2 (Homo sapiens, UniProt P00918).
Series [2] concerns the target T1, Carbonic anhydrase 2. This is another data set of the same source.
The nature of series [3]: in vitro. The settings on record: human, corneal epithelial cell.
Description: Cytotoxicity against human Corneal epithelial cell assessed as cell growth inhibition at 1 % measured after 96 hrs by MTT assay relative to control
For series [4], the target named is T2, Carbonic anhydrase 4 (Homo sapiens, UniProt P22748).
T2 sequence (P22748 whole entry): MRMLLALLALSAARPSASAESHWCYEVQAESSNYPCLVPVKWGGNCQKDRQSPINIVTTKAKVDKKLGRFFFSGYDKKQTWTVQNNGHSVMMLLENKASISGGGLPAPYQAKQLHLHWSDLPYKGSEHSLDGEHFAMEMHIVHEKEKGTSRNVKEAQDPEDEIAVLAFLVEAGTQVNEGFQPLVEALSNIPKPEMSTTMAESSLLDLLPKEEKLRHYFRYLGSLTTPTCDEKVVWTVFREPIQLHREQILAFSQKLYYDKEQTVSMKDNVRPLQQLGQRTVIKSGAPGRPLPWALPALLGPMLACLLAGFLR
In series [5] the target is T3, Carbonic anhydrase 1 (Homo sapiens, UniProt P00915).
Target sequence in this assay (P00915 whole entry): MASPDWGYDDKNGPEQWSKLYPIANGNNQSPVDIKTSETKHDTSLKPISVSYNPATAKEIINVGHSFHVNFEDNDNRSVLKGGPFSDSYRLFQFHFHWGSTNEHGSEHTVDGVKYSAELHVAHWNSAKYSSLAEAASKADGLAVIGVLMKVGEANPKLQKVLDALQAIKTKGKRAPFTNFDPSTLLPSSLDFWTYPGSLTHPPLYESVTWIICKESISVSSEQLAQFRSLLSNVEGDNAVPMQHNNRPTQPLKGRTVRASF
Series [6] addresses Acetylcholinesterase (Homo sapiens, UniProt P22303).
Series [7] has as its target T1, Carbonic anhydrase 2. This is another data set of the same source.
In series [8] the target is T1, Carbonic anhydrase 2. The source holds these as a separate data set.
For series [9], the target named is T4, Carbonic anhydrase 9 (Homo sapiens, UniProt Q16790).
Series [10] concerns the target T5, Carbonic anhydrase 12 (Homo sapiens, UniProt O43570).
The target of series [11] is T3, Carbonic anhydrase 1. The source holds these as a separate data set.
Target sequence in this assay (P00915 whole entry): as above
Series [12] deals with HSC-2. Put plainly: cells. Conditions: Homo sapiens, time 48 hrs. The format is functional.
Description: Cytotoxicity against human HSC-2 cells assessed as cell growth inhibition measured after 48 hrs by MTT assay
Series [13] is described as follows: in vitro. The settings on record: human.
Description: Selectivity index, ratio of CC50 for cytotoxicity against HPLF cells to CC50 for cytotoxicity against human Ca9-22 cells by MTT method
Series [14] in a line: in vitro. The settings on record: human. The source holds these as a separate data set.
Description: Selectivity index, ratio of CC50 for cytotoxicity against HGF cells to CC50 for cytotoxicity against human HSC-2 cells by MTT method
In series [15] the test system is Ca9-22. Put plainly: cells. The format is functional. Conditions: Homo sapiens, time 48 hrs.
Description: Cytotoxicity against human Ca9-22 cells assessed as cell growth inhibition measured after 48 hrs by MTT assay
A short description of series [16]: in vitro. Conditions: human. The source holds these as a separate data set.
Description: Selectivity index, ratio of CC50 for cytotoxicity against HGF cells to CC50 for cytotoxicity against human Ca9-22 cells by MTT method
The nature of series [17]: in vitro. Conditions: human. This is another data set of the same source.
Description: Selectivity index, ratio of CC50 for cytotoxicity against HPLF cells to CC50 for cytotoxicity against human HSC-2 cells by MTT method
Series [18] has as its system SH-SY5Y. The series can be described thus: cells. It counts as functional, cell-based. Conditions: Homo sapiens, 48 h.
Description: Cytotoxicity against human SH-SY5Y cells assessed as cell growth inhibition measured after 48 hrs by MTT assay
The test system of series [19] is HT-1080. The series can be described thus: cells. The settings on record: Homo sapiens, HT-1080, 48 h. The format is functional, cell-based.
Description: Cytotoxicity against human HT-1080 cells assessed as cell growth inhibition measured after 48 hrs by MTT assay
Series [20] relates to MCF7. Put plainly: cells. The format is functional, cell-based. The settings on record: Homo sapiens, MCF7, 48 h.
Description: Cytotoxicity against human MCF7 cells assessed as cell growth inhibition measured after 48 hrs by MTT assay
For series [21], the target named is T3, Carbonic anhydrase 1. This is another data set of the same source.
Target sequence in this assay (P00915 2-261 limits assumed): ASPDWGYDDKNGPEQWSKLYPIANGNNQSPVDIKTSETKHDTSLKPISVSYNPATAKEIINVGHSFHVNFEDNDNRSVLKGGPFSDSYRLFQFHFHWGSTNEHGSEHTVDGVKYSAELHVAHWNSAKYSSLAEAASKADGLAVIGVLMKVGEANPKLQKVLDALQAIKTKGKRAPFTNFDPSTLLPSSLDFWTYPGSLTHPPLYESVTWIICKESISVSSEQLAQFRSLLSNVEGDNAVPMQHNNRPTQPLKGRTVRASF
In series [22] the target is T3, Carbonic anhydrase 1. This is another data set of the same source.
Target sequence in this assay (P00915 whole entry): as the sequence (P00915 whole entry) above
Series [23] deals with T1, Carbonic anhydrase 2. This is another data set of the same source.
Series [24] deals with T4, Carbonic anhydrase 9. This is another data set of the same source.
The target in series [25] is T2, Carbonic anhydrase 4. The source holds these as a separate data set.
Series [26] has as its target Carbonic anhydrase 5A, mitochondrial (Homo sapiens, UniProt P35218).
The target in series [27] is T5, Carbonic anhydrase 12. The settings on record: time 6.0 hrs.
In series [28] the target is T3, Carbonic anhydrase 1. This is another data set of the same source.
Target sequence in this assay (P00915 whole entry): as above
For series [29], the target named is Carbonic anhydrase 7 (Homo sapiens, UniProt P43166).
Carbonic anhydrase 7, sequence (P43166 whole entry): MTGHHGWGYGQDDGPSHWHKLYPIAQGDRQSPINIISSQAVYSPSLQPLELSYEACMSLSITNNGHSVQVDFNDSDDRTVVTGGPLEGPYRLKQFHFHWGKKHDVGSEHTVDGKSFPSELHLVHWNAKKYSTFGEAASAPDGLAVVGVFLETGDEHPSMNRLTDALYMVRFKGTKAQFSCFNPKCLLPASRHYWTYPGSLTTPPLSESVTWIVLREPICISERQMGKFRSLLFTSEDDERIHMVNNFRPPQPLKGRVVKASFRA
For series [30], the target named is T4, Carbonic anhydrase 9. This is another data set of the same source.
The target of series [31] is T1, Carbonic anhydrase 2. The source holds these as a separate data set.
The target in series [32] is T3, Carbonic anhydrase 1. This is another data set of the same source.
Target sequence in this assay (P00915 whole entry): as the sequence (P00915 whole entry) above
Series [33] concerns the target T5, Carbonic anhydrase 12. This is another data set of the same source.

T5 sequence (O43570 whole entry): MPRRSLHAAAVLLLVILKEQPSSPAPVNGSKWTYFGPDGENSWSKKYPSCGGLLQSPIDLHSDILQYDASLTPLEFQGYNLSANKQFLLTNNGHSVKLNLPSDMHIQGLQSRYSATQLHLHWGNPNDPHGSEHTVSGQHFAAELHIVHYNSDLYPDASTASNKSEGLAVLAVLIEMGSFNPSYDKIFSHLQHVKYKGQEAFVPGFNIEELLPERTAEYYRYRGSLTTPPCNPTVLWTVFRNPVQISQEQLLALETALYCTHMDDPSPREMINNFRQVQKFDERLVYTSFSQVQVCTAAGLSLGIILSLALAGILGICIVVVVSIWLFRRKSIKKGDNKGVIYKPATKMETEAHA
Acetylcholinesterase, sequence (P22303 whole entry): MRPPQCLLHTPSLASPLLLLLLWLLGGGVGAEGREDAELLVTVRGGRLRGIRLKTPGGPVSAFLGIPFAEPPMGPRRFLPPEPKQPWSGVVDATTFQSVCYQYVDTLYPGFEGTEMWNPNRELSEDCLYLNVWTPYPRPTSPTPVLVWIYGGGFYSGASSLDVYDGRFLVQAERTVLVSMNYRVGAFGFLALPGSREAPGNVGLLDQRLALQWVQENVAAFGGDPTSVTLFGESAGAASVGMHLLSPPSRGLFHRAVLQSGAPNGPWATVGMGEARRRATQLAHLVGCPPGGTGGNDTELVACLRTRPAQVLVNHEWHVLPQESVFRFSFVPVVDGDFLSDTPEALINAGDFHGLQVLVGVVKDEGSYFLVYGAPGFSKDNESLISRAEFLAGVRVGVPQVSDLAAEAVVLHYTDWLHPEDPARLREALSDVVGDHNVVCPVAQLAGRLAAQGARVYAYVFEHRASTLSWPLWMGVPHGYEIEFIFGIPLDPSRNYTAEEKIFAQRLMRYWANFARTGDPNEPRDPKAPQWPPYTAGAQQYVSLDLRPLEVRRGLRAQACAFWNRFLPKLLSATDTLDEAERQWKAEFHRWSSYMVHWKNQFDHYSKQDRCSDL
Carbonic anhydrase 5A, mitochondrial, sequence (P35218 whole entry): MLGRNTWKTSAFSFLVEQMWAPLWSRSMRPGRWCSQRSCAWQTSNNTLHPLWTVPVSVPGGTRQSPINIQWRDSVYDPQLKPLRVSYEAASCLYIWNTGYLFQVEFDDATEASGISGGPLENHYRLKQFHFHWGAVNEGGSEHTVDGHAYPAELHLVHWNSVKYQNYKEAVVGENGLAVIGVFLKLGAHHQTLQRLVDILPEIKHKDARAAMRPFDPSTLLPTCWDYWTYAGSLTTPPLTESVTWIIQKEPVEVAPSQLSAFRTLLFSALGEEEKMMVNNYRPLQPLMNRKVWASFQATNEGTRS

In [1], `O=C1/C(=C\c2ccc(O)c(CN3CCN(c4ccccc4)CC3)c2)Cc2ccccc21` came in with a Ki of 51.1 nM.
In the case of `O=C1/C(=C\c2ccc(O)c(CN3CCN(c4ccccc4F)CC3)c2)Cc2ccccc21`, in [1], the affinity, expressed as Ki, was 51.1 nM.
Still for that read-out and setting: the figure for `O=C1/C(=C\c2ccc(O)c(CN3CCN(c4ccc(F)cc4)CC3)c2)Cc2ccccc21` is 51.1 nM.
The compound `NS(=O)(=O)c1ccc(C(=O)N[C@@H]2O[C@H](CO)[C@@H](O)[C@H](O)[C@@H]2O)cc1` had a Ki in series [2] of 0.009 nM. The compound also had an inhibition at 96 h, 1 % in series [3] of 74%.
In turn, `NS(=O)(=O)c1ccc(C(=O)N[C@@H]2O[C@H](CO)[C@H](O)[C@H](O)[C@H]2O)cc1` had a Ki in series [2] of 0.009 nM.
`COc1cc(S(N)(=O)=O)ccc1-c1nc(-c2cccc(F)c2)no1` showed a Ki in [4] of 8.9 nM.
Turning to `NS(=O)(=O)c1ccc(N2N=C(c3cccs3)CC2c2ccc(Br)cc2)cc1` (configuration not stated), the Ki in series [5] was 25.6 nM; in series [6] it was 80.6 nM; in series [7] it was 37.3 nM.
For the compound `NS(=O)(=O)c1ccc(NCC(=O)N/N=C2\C(=O)N(Cc3ccccc3)c3ccccc32)cc1`, the Ki in series [8] worked out at 3 nM; in [9], 16.4 nM; in series [10], 34.3 nM.
In turn, `NS(=O)(=O)c1ccc(C(=O)N[C@@H]2OC[C@@H](O)[C@H](O)[C@H]2O)cc1` showed an inhibition at 96 h, 1 % in series [3] of 74%.
With `COc1cc(C2CC(c3ccc(F)cc3)=NN2c2ccc(S(N)(=O)=O)cc2)cc(OC)c1OC` (configuration not stated), the Ki was 0.089 nM in series [8], over 230 nM in series [11], over 44 nM in series [9] and over 9 nM in series [10]. Besides, the CC50 stood at 7300 nM in [12] and 6300 nM in series [15]. Also, the selectivity ratio in series [13], in [14], in series [16] and in series [17] was 1.1 each time.
`O=S1(=O)C=Cc2cc(-n3cc(-c4ccc(Cl)cc4)nn3)ccc2O1`: the values for the IC50 in series [18], in series [19] and in [20] were 18400 nM, 7900 nM and 1800 nM, respectively. Besides, the Ki in [9] was 6.9 nM; in series [10] it was 5.4 nM.
Consider `O=C1/C(=C\c2ccc(O)c(CN3CCN(Cc4ccccc4)CC3)c2)Cc2ccccc21`, for which, in [1], the affinity corresponds to a Ki of 51.1 nM.
Turning to `O=S1(=O)C=Cc2cc(-c3nnnn3-c3ccccc3)ccc2O1`, the IC50 came to 18400 nM in series [18], 7900 nM in series [19] and 1800 nM in series [20]. In addition, the inhibitory constant (Ki) was 6.9 nM in [9] and 5.4 nM in series [10].
In [21], `NS(=O)(=O)c1ccc(C(=O)NN2C(=O)c3nccnc3C2=O)cc1` gave a Kis of 84.3 nM.
Take `NS(=O)(=O)c1ccc(N/C=C/C(=O)c2ccc3ccccc3c2)cc1`: the Ki is over 10000 nM in [22], 0.48 nM in series [23], 0.21 nM in series [24] and 6.5 nM in series [25].
On to `O=S1(=O)C=Cc2cc(-c3nnnn3-c3ccc(F)c(Cl)c3)ccc2O1`, for which the IC50 in series [18] turned out to be 18400 nM; in series [19], 7900 nM; in [20], 1800 nM.
In the case of `NS(=O)(=O)c1ccc(N/C=C/C(=O)c2ccc(Br)cc2)cc1`, the Ki came to 8500 nM in [22], 0.48 nM in [23], 0.21 nM in series [24] and 6.5 nM in series [25].
As for `CC(C)[C@@H](NC(=O)OCc1ccccc1)C(=O)NCCc1ccc(S(N)(=O)=O)cc1`, affinity in [26] was put at a Ki of 58.7 nM.
For the compound `NS(=O)(=O)c1ccc(N/N=C2\C(=O)Nc3ccccc32)cc1`, the Ki turned out to be 6.5 nM in [8], 90.2 nM in series [11], 21.4 nM in [9] and 34.3 nM in series [10].
`NS(=O)(=O)c1ccc(C(=O)NN2C(=O)C3CC=CCC3C2=O)cc1` (configuration not stated) showed a Kis in [21] of 84.3 nM.
Take `O=S1(=O)CC=Cc2cc(-n3cc(-c4ccc(C(F)(F)F)cc4)nn3)ccc2O1`: in series [27], the Kis came to 0.64 µM.
`COC(=O)[C@H]1O[C@@H](O)[C@H](O)[C@@H](O)[C@@]1(O)S(=O)(=O)Nc1ccccc1C(N)=O` came in with a half-maximal inhibitory concentration (IC50) in [28] of 1800 nM. Also, in series [2], the Ki is 0.009 nM. The same compound came in with an inhibition at 96 h, 1 % in series [3] of 74%.
As to `NS(=O)(=O)c1ccc(N/C=C/C(=O)c2ccc(F)cc2)cc1`, the Ki is 9300 nM in series [22], 0.48 nM in [23], 0.21 nM in [24] and 6.5 nM in [25].
On to `CS(=O)(=O)Cc1cc(O)c(O)c(Br)c1Br`, for which, in [1], affinity was put at a Ki of 42.8 nM.
`COc1cc([SeH])cc(OC)c1OC`: the Ki in series [29] is over 50000 nM; in series [22], over 50000 nM; in [23], over 50000 nM; in series [24], 180 nM.
As to `C[C@@H]1O[C@H](NC(=O)c2ccc(S(N)(=O)=O)cc2)[C@H](O)[C@H](O)[C@H]1O`, 1800 nM corresponded to half-maximal inhibition in series [28] (IC50). Also, in series [2], the Ki amounted to 0.009 nM.
`O=[N+]([O-])c1ccc2c(c1)C=CCS(=O)(=O)O2` returned a Kis in [27] of 0.64 µM.
Take `NS(=O)(=O)c1ccc(C(=O)N[C@@H]2O[C@H](CO)[C@@H](O)[C@H](O)[C@H]2O)cc1`: affinity in [2] was put at a Ki of 0.009 nM.
The compound `CS(=O)(=O)Cc1c(Br)c(O)c(O)c(Br)c1Br` displayed a Ki in series [1] of 42.8 nM.
As to `CC(C)(C)c1ccc2c(c1)C(=O)N(NC(=O)c1ccc(S(N)(=O)=O)cc1)C2=O`, the Kis in [30] turned out to be 3 nM; in series [21], 84.3 nM.
Turning to `Cc1ccc2c(c1)C(=O)N(NC(=O)c1ccc(S(N)(=O)=O)cc1)C2=O`, the values for the Kis in series [30] and in series [21] were 3 nM and 84.3 nM, respectively.
`O=C1C(=O)N(CN2CCOCC2)c2ccccc21`: the Ki was found to be 5.02 nM in [31] and 8.57 nM in series [32].
`Nc1ccc2c(c1)C=CCS(=O)(=O)O2` showed a Kis in series [27] of 0.64 µM.
As for `COc1ccccc1N1CCN(Cc2cc(/C=C3/Cc4ccccc4C3=O)ccc2O)CC1`, the Ki in [1] came to 51.1 nM.
`O=c1c2ccccc2nc(SCCN2CCCCC2)n1CCc1ccccc1`: the Ki in series [22] came out at 229 nM; in series [33], 17.2 nM; in series [23], 14.2 nM; in series [24], 19.3 nM.
On to `NS(=O)(=O)c1ccc(N=C2C(=O)Nc3ccccc32)cc1`, for which the Ki amounted to 3 nM in [8], 13.9 nM in series [9] and 34.3 nM in series [10].
For `NS(=O)(=O)c1ccc(CCn2c(SCC(=O)Nc3ccc(Cl)cc3)nc3ccccc3c2=O)cc1`, the affinity in series [23] corresponds to a Ki of 25.4 nM.
For `NS(=O)(=O)c1ccc(N/C=C/C(=O)c2ccc([N+](=O)[O-])cc2)cc1`, the Ki in series [22] is over 10000 nM; in [24], 0.21 nM; in series [25], 6.5 nM.
Regarding `CN1CCN(CN2C(=O)C(=O)c3ccccc32)CC1`, the Ki in series [31] was found to be 5.02 nM; in series [32], 8.57 nM.
